Assays:
Experiment in all cases: relative viability (nuclei count vs DMSO), 5 days (fraction); higher = more cells survive
[1] = compound: Cc1nc(NC(=O)N2CCC[C@H]2C(N)=O)sc1-c1ccnc(C(C)(C)C(F)(F)F)c1 [Alpelisib]
Procedure, shortened: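 On vehicle-anchored 1536-well plates, lung cancer cell lines held overnight at 37 °C were pinned with five library-drug doses (not always all listed) spaced by √10. With no medium change over 5 days, they were then fixed, permeabilised and Hoechst-stained in one step and imaged at 4×. MetaXpress counted nuclei, and viability is the median across plates of treated-well over vehicle-well nuclei. Acceptance needed control CV below 25% and at least one doubling.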

[2] = compound: COc1cccc2cc(-c3nc([C@H]4CC[C@H](C(=O)O)CC4)n4ncnc(N)c34)[nH]c12 [OSI-027] + CC(=O)c1c(C)c2cnc(Nc3ccc(N4CCNCC4)cn3)nc2n(C2CCCC2)c1=O [Palbociclib] (partner 0.5 µM)
Procedure, shortened: (§1)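 Medians of duplicate plates are given as relative viability. That measure is the nuclei count in treated wells divided by the count in vehicle wells. Counts were taken on 4× images of lung cancer cell lines in 1536-well plates, 5 days after pin-tool dosing the day after seeding with one drug alone or a fixed anchor-drug dose plus five library-drug doses (not always all listed) in √10 steps.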

[3] = compound: Cc1nc(NC(=O)N2CCC[C@H]2C(N)=O)sc1-c1ccnc(C(C)(C)C(F)(F)F)c1 [Alpelisib] + CS(=O)(=O)CCNCc1ccc(-c2ccc3ncnc(Nc4ccc(OCc5cccc(F)c5)c(Cl)c4)c3c2)o1 [Lapatinib] (partner 2 µM)
Procedure, shortened: as §1

UMC-11 was tested, and the relative viability ([1]; 0.04 µM) was 0.937, the relative viability ([1]; 0.1265 µM) was 0.954 and the relative viability ([1]; 0.4 µM) was 1.01. The relative viability ([1]; 1.265 µM) was 0.956, the relative viability ([1]; 2 µM, anchor plate) was 1 and the relative viability ([1]; 4 µM) was 0.826. It also gave a relative viability ([2]; first compound 0.01 µM) of 0.314, a relative viability ([2]; first compound 0.03162 µM) of 0.371 and a relative viability ([2]; first compound 0.1 µM) of 0.307. For the same cell line, the relative viability ([2]; first compound 0.3162 µM) was 0.301, the relative viability ([2]; first compound 1 µM) was 0.314 and the relative viability ([3]; first compound 0.04 µM) was 1.03. The relative viability ([3]; first compound 0.1265 µM) was 0.948, the relative viability ([3]; first compound 0.4 µM) was 1.01 and the relative viability ([3]; first compound 1.265 µM) was 1.02. For the same cell line, the relative viability ([3]; first compound 4 µM) was 0.875.

Reference: the supplement of paper PMC10307832
